Data published in article PMC11219871, “Epigenetic-based differentiation therapy for Acute Myeloid Leukemia” (Nature Communications, 2024).
“And” between values parts separate entries of the source, which are not always exact repeats. Identical values can stand only once.

What was measured:
[1] = test system: HL-60; experiment: Differentiation-apoptosis assay, CD11b / annexin-V / Sytox Green / myeloid markers flow cytometry; format: cell-based, human; design: Cell viability (%): concentration or dose not given beside the values; CD11b levels: unit not given here
Method in brief: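 HL-60 cells were stained for the myeloid differentiation marker CD11b, with annexin-V and Sytox Green marking apoptosis and cell death. Cells were washed in PBS and resuspended at 1 × 10^6 cells/mL in binding buffer; marker staining of 1 million cells was for 30 min at room temperature in the dark, followed by red-cell lysis. Readout was flow cytometry.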

[2] = test system: GF-D8; experiment: Differentiation assay, CD11b / annexin-V flow cytometry; format: cell-based; details: GF-D8 cell line; replicates 1-3 (Figure 2A);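 also: daily treatment at a GI50-based fraction of each compound's GI50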
Experimental: (§1) Next, the cells were washed twice with phosphate-buffered saline (PBS) and resuspended in 1X Binding Buffer at a concentration of 1 × 10^6 cells/mL. An 8-µL aliquot of APC-CD11b (BD Pharmingen, Franklin Lakes, NJ, USA) and 1 µL of FITC annexin-V (AV) (BD Pharmingen, Franklin Lakes, NJ, USA) antibodies were added and incubated for 15 min at room temperature in the dark. Finally, after the addition of 400 µL of 1X Binding Buffer to each tube, samples were collected on a BD FACSCanto flow cytometer (Becton Dickinson, San Jose, CA, USA) and analyzed using FlowJo software.

[3] = test system: HEL; experiment: as above; format: cell-based; details: HEL cell line; replicates 1-3 (Figure 2A)
Experimental: as §1

[4] = test system: KASUMI-1; experiment: as above; format: cell-based; details: KASUMI-1 cell line; replicates 1-3 (Figure 2A);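 also: daily treatment at a GI50-based fraction of each compound's GI50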
Experimental: as §1

[5] = test system: M-O7e; experiment: as above; format: cell-based; details: MO7e cell line; replicates 1-3 (Figure 2A);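 also: daily treatment at a GI50-based fraction of each compound's GI50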
Experimental: as §1

[6] = test system: MONO-MAC-6; experiment: as above; format: cell-based; details: MONOMAC-6 cell line; replicates 1-3 (Figure 2A)
Experimental: as §1

[7] = test system: NB-4; experiment: as above; format: cell-based; details: NB4 cell line; replicates 1-3 (Figure 2A)
Experimental: as §1

[8] = test system: OCI-AML2; experiment: as above; format: cell-based; details: OCI-AML-2 cell line; replicates 1-3 (Figure 2A)
Experimental: as §1

[9] = test system: OCI-AML3; experiment: as above; format: cell-based; details: OCI-AML-3 cell line; replicates 1-3 (Figure 2A)
Experimental: as §1

[10] = test system: TF-1; experiment: as above; format: cell-based; details: TF-1 cell line; replicates 1-3 (Figure 2A);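 also: daily treatment at a GI50-based fraction of each compound's GI50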
Experimental: as §1

[11] = test system: THP-1; experiment: as above; format: cell-based; details: THP-1 cell line; replicates 1-3 (Figure 2A)
Experimental: as §1

[12] = test system: UT-7; experiment: as above; format: cell-based; details: UT7 cell line; replicates 1-3 (Figure 2A)
Experimental: as §1

[13] = test system: MV4-11; experiment: Differentiation-apoptosis assay, CD11b / annexin-V / Sytox Green / myeloid markers flow cytometry; format: cell-based, human; design: Cell viability (%): concentration or dose not given beside the values; CD11b levels: unit not given here
Method in brief: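 Cells washed in PBS, resuspended at 1 × 10^6 cells/mL in binding buffer and stained with APC-CD11b and FITC annexin-V for 15 min at room temperature in the dark, then read by flow cytometry. Other runs used a CD13/HLA-DR/CD14 antibody panel, 30 min staining, then red-cell lysis and washes.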

[14] = test system: primary AML patient samples; experiment: Differentiation assay, CD11b flow cytometry in primary samples; format: cell-based, human; details: for CD11b-positive cells (%): daily 48 h
Experimental: as §1
Peripheral blood (PB) specimens were obtained from preliminarily diagnosed AML patients who had not received any treatment before specimens were collected. All patients gave informed consent for their participation in this study, which was approved by the Clinical Research Ethics Committee of Clínica Universidad de Navarra. Written informed consent was obtained from each participant. PB was mixed with an ammonium chloride-potassium (ACK) buffer lysis (0.15 mol/L NH4Cl, 10 mmol/L KHCO3, 0.1 mmol/L ethylenediaminetetraacetic acid, pH 7.2) at a 1:2 volume ratio by gentle inversion, incubated for 10 min and centrifuged at 200 g for 10 min. The cell pellet was washed twice with PBS and finally resuspended in EGM2 medium (Cambrex Bioscience, Walkersville, MD). EGM2 contains 2% fetal calf serum, hydrocortisone, heparin, antibiotics, epidermal growth factor, human fibroblast growth factor, insulin-like growth factor, vascular endothelial growth factor, and ascorbic acid. The cells were plated at 1 × 10^6 cells/mL and treated daily with 200 and 500 nM of CM-444 and CM-1758 for 48 h. Next, the differentiation assay was performed as described above.

[15] = HL-60, 48 h treatment, replicates 1-3 (Suppl. Fig. 5A)
[16] = HL-60, daily treatment, time 0 days, replicates 1-3 (Figure 2B)
[17] = HL-60, daily treatment, time 2 days, replicates 1-3 (Figure 2B)
[18] = HL-60, daily treatment, time 4 days, replicates 1-3 (Figure 2B)
[19] = HL-60, daily treatment, time 6 days, replicates 1-3 (Figure 2B)
[20] = HL-60, daily treatment, time 8 days, replicates 1-3 (Figure 2B)
[21] = MV4-11, 48 h treatment, replicates 1-3 (Suppl. Fig. 5A)
[22] = MV4-11, daily treatment, time 0 days
[23] = MV4-11, daily treatment, time 2 days
[24] = MV4-11, daily treatment, time 4 days
[25] = MV4-11, daily treatment, time 6 days

SMILES: COc1cc2nc(-c3cc(C)oc3C)cc(NCC3CCN(c4ncc(C(=O)NO)cn4)CC3)c2cc1OC [CM-1758, 2-[4-[[[2-(2,5-dimethyl-3-furyl)-6,7-dimethoxy-4-quinolyl]amino]methyl] -1-piperidyl]pyrimidine-5-carbohydroxamic acid]
- percentage of CD11b ([1]; HL-60, 270 nM CM-444 or 300 nM CM-1758 daily for 4 days, before injection): > 90%
- CD11b (%) ([1]; HL-60, 48 h): 71.2%
- CD13 (%) ([1]; HL-60, 48 h): 100%
- CD14 (%) ([1]; HL-60, 48 h): 18.9%
- HLA-DR (%) ([1]; HL-60, 48 h): 12.2%
- CD11b (%) [1, 15]: 65.4% and 71.1% and 68.4%
- Cell viability (%) [1, 15]: 82.8% and 73.6% and 69.5%
- differentiation level (CD11b) ([1]; HL-60, after 6–8 days of treatment): ~90%
- Annexin V (%) Replicate 1 ([1]; HL-60, daily 25% GI50, 48 h): 0.26%
- Annexin V (%) Replicate 2 ([1]; HL-60, daily 25% GI50, 48 h): 0.17%
- Annexin V (%) Replicate 3 ([1]; HL-60, daily 25% GI50, 48 h): 0.14%
- CD11b (%) Replicate 1 ([1]; HL-60, daily 25% GI50, 48 h): 55.36%
- CD11b (%) Replicate 2 ([1]; HL-60, daily 25% GI50, 48 h): 68.41%
- CD11b (%) Replicate 3 ([1]; HL-60, daily 25% GI50, 48 h): 67.15%
- Annexin-V (%) [1, 16]: 0% and 4.96% and 3.21%
- CD11b (%) [1, 16]: 13.33% and 12.5% and 10.8%
- Annexin-V (%) [1, 17]: 5.66% and 3.51% and 4.98%
- CD11b (%) [1, 17]: 74.44% and 64.2% and 68.7%
- Annexin-V (%) [1, 18]: 0% and 4.07% and 5.87%
- CD11b (%) [1, 18]: 86.57% and 79.2% and 77.3%
- Annexin-V (%) [1, 19]: 5.76% and 2.68% and 3.98%
- CD11b (%) [1, 19]: 94.42% and 89.2% and 90.5%
- Annexin-V (%) [1, 20]: 0% and 5.21% and 6.98%
- CD11b (%) [1, 20]: 96% and 92.9% and 94.7%
- CD11b (%) ([1]; HL-60 cell line, replicates 1-3 (Figure 2A)): 81.73% and 89.6% and 92.1%
- CD11b levels ([1]; HL-60 treated daily for 48 h, replicates (Fig 6D)): 61.2 and 70.4 and 75.9
- CD11b (%) [2]: 27.3% and 20% and 28.6%
- CD11b (%) [3]: 14.82% and 10.2% and 20.4%
- CD11b (%) [4]: 24.2% and 19.4% and 12.5%
- CD11b (%) [5]: 17.02% and 15.8% and 12.9%
- CD11b (%) [6]: 61.3% and 69.1% and 60.1%
- CD11b (%) [7]: 41.82% and 48.2% and 36.4%
- CD11b (%) [8]: 39.01% and 39.3% and 37.1%
- CD11b (%) [9]: 51.4% and 49.5% and 45.2%
- CD11b (%) [10]: 72.3% (2×) and 76.2%
- CD11b (%) [11]: 90.5% and 96.2% and 93.2%
- CD11b (%) [12]: 21.8% and 25.6% and 23.1%
- CD11b (%) ([13]; MV4-11, 48 h): 57.9%
- CD13 (%) ([13]; MV4-11, 48 h): 98.1%
- CD14 (%) ([13]; MV4-11, 48 h): 56.2%
- HLA-DR (%) ([13]; MV4-11, 48 h): 38.4%
- CD11b (%) [13, 21]: 47.1% and 53.2% and 55.4%
- Cell viability (%) [13, 21]: 80.4% and 85.9% and 86.75%
- differentiation level (CD11b) ([13]; MV4-11, after 6–8 days of treatment): ~90%
- CD11b levels ([13]; MV4-11, daily treatment for 48 h, replicates 1-3 (Suppl. Fig. 9A)): 37.8 and 40.7 and 46.2
- Annexin-V (%) [13, 22]: 5.32% and 4.14% and 5.2%
- CD11b (%) [13, 22]: 11.1% and 6.62% and 5.25%
- Annexin-V (%) [13, 23]: 7.65% and 8.98% and 10.24%
- CD11b (%) [13, 23]: 28.2% and 20.4% and 30.4%
- Annexin-V (%) [13, 24]: 26.3% and 27.9% and 28.6%
- CD11b (%) [13, 24]: 44.3% and 46.2% and 46.6%
- Annexin-V (%) [13, 25]: 19.6% and 21.2% and 20.7%
- CD11b (%) [13, 25]: 76% and 75.1% and 74.8%
- CD11b (%) ([13]; MV4-11 cell line, replicates 1-3 (Figure 2A)): 38.46% and 40.4% and 45.7%
- CD11b (%) ([14]; primary AML patient sample 1 (Figure 2C)): 43.21%
- CD11b (%) ([14]; primary AML patient sample 2 (Figure 2C)): 30.14%
- CD11b (%) ([14]; primary AML patient sample 3 (Figure 2C)): 23.69%
- CD11b (%) ([14]; primary AML patient sample 4 (Figure 2C)): 38.45%
- CD11b (%) ([14]; primary AML patient sample 5 (Figure 2C)): 30.14%
- CD11b (%) ([14]; primary AML patient sample 6 (Figure 2C)): 35.24%
- CD11b (%) ([14]; primary AML patient sample 7 (Figure 2C)): 35.47%
- CD11b (%) ([14]; primary AML patient sample 8 (Figure 2C)): 25.49%
- CD11b-positive cells (%) ([14]; sample AML-1, 200 nM): 30.6%
- CD11b-positive cells (%) ([14]; sample AML-1, 500 nM): 43.2%
- CD11b-positive cells (%) ([14]; sample AML-2, 200 nM): 15.2%
- CD11b-positive cells (%) ([14]; sample AML-2, 500 nM): 30.1%
- CD11b-positive cells (%) ([14]; sample AML-3, 200 nM): 15.5%
- CD11b-positive cells (%) ([14]; sample AML-3, 500 nM): 23.7%
- CD11b-positive cells (%) ([14]; sample AML-4, 200 nM): 21.9%
- CD11b-positive cells (%) ([14]; sample AML-4, 500 nM): 38.4%
- CD11b-positive cells (%) ([14]; sample AML-5, 200 nM): 19.2%
- CD11b-positive cells (%) ([14]; sample AML-5, 500 nM): 30.1%
- CD11b-positive cells (%) ([14]; sample AML-6, 200 nM): 27.2%
- CD11b-positive cells (%) ([14]; sample AML-6, 500 nM): 35.2%
- CD11b-positive cells (%) ([14]; sample AML-7, 200 nM): 30.1%
- CD11b-positive cells (%) ([14]; sample AML-7, 500 nM): 35.5%
- CD11b-positive cells (%) ([14]; sample AML-8, 200 nM): 16.2%
- CD11b-positive cells (%) ([14]; sample AML-8, 500 nM): 25.5%
